The conditions of the data set: Liquid.

Numbers after ± are expanded uncertainties.

One may read the vapor or sublimation pressure as the pressure of vapour in equilibrium with the condensed phase.

For the molecule `CCCC` [butane], the “vapor or sublimation pressure” value is, setting by setting: (353.15 K) 1039 ± 27 kPa; (373.15 K) 1586 ± 39 kPa; (393.15 K) 2265 ± 56 kPa; (413.15 K) 3156 ± 78 kPa.

`CCCCCCC` [heptane]: the “vapor or sublimation pressure” value is, setting by setting: (433.15 K) 477 ± 18 kPa; (443.15 K) 587 ± 19 kPa; (453.15 K) 703 ± 21 kPa.

For `CCCCCC` [hexane], the “vapor or sublimation pressure” value by setting is: (393.15 K) 410 ± 17 kPa; (413.15 K) 633 ± 20 kPa; (433.15 K) 918 ± 25 kPa; (453.15 K) 1301 ± 33 kPa.

As for `CCCCC` [pentane], the “vapor or sublimation pressure” value came out at 600 ± 20 kPa (373.15 K) and 1620 ± 40 kPa (423.15 K).

The values are drawn from the NIST ThermoML archive (doi:10.1021/je800757j).
